According to ChEMBL document CHEMBL1149807, “Synthesis and anticancer activity of new class of bisphosphonates/phosphanamidates” (Eur J Med Chem, 2008):

These compounds were tested on NCI-H460 (assay: Growth inhibition of human NCI-H460 cells by MTT assay).
Format: functional, cell-based

Structure (SMILES) | IC50 [µM]
O=P1(C(c2ccc(Cl)cc2)P2(=O)Oc3ccccc3CN2c2ccc(F)c(Cl)c2)Oc2ccccc2CN1c1ccc(F)c(Cl)c1 (stereo unspecified) | 10.9
C/C=C/C(P1(=O)Oc2ccccc2CN1c1ccc(F)c(Cl)c1)P1(=O)Oc2ccccc2CN1c1ccc(F)c(Cl)c1 (stereo unspecified) | 8.22
O=P1(C(/C=C/c2ccccc2)P2(=O)Oc3ccccc3CN2c2ccc(F)c(Cl)c2)Oc2ccccc2CN1c1ccc(F)c(Cl)c1 (stereo unspecified) | 11.8
Cc1ccc(C(P2(=O)OCC(C)(C)CO2)P2(=O)OCC(C)(C)CO2)cc1 | > 1000
Cc1ccc(C(P2(=O)Oc3ccccc3CN2c2ccc(F)c(Cl)c2)P2(=O)Oc3ccccc3CN2c2ccc(F)c(Cl)c2)cc1 (stereo unspecified) | 9
O=P1(C(c2ccccc2)P2(=O)Oc3ccccc3CN2c2ccc(F)c(Cl)c2)Oc2ccccc2CN1c1ccc(F)c(Cl)c1 (stereo unspecified) | 3.77
C/C=C/C(P1(=O)OCC(C)(C)CO1)P1(=O)OCC(C)(C)CO1 | > 1000
CC1(C)COP(=O)(C(c2ccccc2)P2(=O)OCC(C)(C)CO2)OC1 | > 1000
CC1(C)COP(=O)(C(c2ccc(Cl)cc2)P2(=O)OCC(C)(C)CO2)OC1 | > 1000
CC1(C)COP(=O)(C(c2cccc([N+](=O)[O-])c2)P2(=O)OCC(C)(C)CO2)OC1 | > 1000
CCN(CC)c1ccc(C(P2(=O)OCC(C)(C)CO2)P2(=O)OCC(C)(C)CO2)cc1 | > 1000
CC1(C)COP(=O)(C(c2ccncc2)P2(=O)OCC(C)(C)CO2)OC1 | > 1000
NP(=O)(O)C(c1ccc(Cl)cc1)P(N)(=O)O (stereo unspecified) | 75.2
CCN(CC)c1ccc(C(P2(=O)Oc3ccccc3CN2c2ccc(F)c(Cl)c2)P2(=O)Oc3ccccc3CN2c2ccc(F)c(Cl)c2)cc1 (stereo unspecified) | 5.69
O=[N+]([O-])c1cccc(C(P2(=O)Oc3ccccc3CN2c2ccc(F)c(Cl)c2)P2(=O)Oc3ccccc3CN2c2ccc(F)c(Cl)c2)c1 (stereo unspecified) | 13
O=P1(C(c2ccncc2)P2(=O)Oc3ccccc3CN2c2ccc(F)c(Cl)c2)Oc2ccccc2CN1c1ccc(F)c(Cl)c1 (stereo unspecified) | 12.3
CC1(C)COP(=O)(C(/C=C/c2ccccc2)P2(=O)OCC(C)(C)CO2)OC1 | > 1000

These compounds were tested on MCF7 (assay: Growth inhibition of human MCF7 cells by MTT assay).
Format: functional, cell-based

Structure (SMILES) | IC50 [µM]
O=P1(C(c2ccc(Cl)cc2)P2(=O)Oc3ccccc3CN2c2ccc(F)c(Cl)c2)Oc2ccccc2CN1c1ccc(F)c(Cl)c1 (stereo unspecified) | 14.3
C/C=C/C(P1(=O)Oc2ccccc2CN1c1ccc(F)c(Cl)c1)P1(=O)Oc2ccccc2CN1c1ccc(F)c(Cl)c1 (stereo unspecified) | 11.3
O=P1(C(/C=C/c2ccccc2)P2(=O)Oc3ccccc3CN2c2ccc(F)c(Cl)c2)Oc2ccccc2CN1c1ccc(F)c(Cl)c1 (stereo unspecified) | 13.1
Cc1ccc(C(P2(=O)OCC(C)(C)CO2)P2(=O)OCC(C)(C)CO2)cc1 | > 1000
Cc1ccc(C(P2(=O)Oc3ccccc3CN2c2ccc(F)c(Cl)c2)P2(=O)Oc3ccccc3CN2c2ccc(F)c(Cl)c2)cc1 (stereo unspecified) | 12.7
O=P1(C(c2ccccc2)P2(=O)Oc3ccccc3CN2c2ccc(F)c(Cl)c2)Oc2ccccc2CN1c1ccc(F)c(Cl)c1 (stereo unspecified) | 4.05
C/C=C/C(P1(=O)OCC(C)(C)CO1)P1(=O)OCC(C)(C)CO1 | > 1000
CC1(C)COP(=O)(C(c2ccccc2)P2(=O)OCC(C)(C)CO2)OC1 | > 1000
CC1(C)COP(=O)(C(c2ccc(Cl)cc2)P2(=O)OCC(C)(C)CO2)OC1 | > 1000
CC1(C)COP(=O)(C(c2cccc([N+](=O)[O-])c2)P2(=O)OCC(C)(C)CO2)OC1 | > 1000
CCN(CC)c1ccc(C(P2(=O)OCC(C)(C)CO2)P2(=O)OCC(C)(C)CO2)cc1 | > 1000
CC1(C)COP(=O)(C(c2ccncc2)P2(=O)OCC(C)(C)CO2)OC1 | > 1000
NP(=O)(O)C(c1ccc(Cl)cc1)P(N)(=O)O (stereo unspecified) | 71.3
CCN(CC)c1ccc(C(P2(=O)Oc3ccccc3CN2c2ccc(F)c(Cl)c2)P2(=O)Oc3ccccc3CN2c2ccc(F)c(Cl)c2)cc1 (stereo unspecified) | 5.71
O=[N+]([O-])c1cccc(C(P2(=O)Oc3ccccc3CN2c2ccc(F)c(Cl)c2)P2(=O)Oc3ccccc3CN2c2ccc(F)c(Cl)c2)c1 (stereo unspecified) | 17.6
O=P1(C(c2ccncc2)P2(=O)Oc3ccccc3CN2c2ccc(F)c(Cl)c2)Oc2ccccc2CN1c1ccc(F)c(Cl)c1 (stereo unspecified) | 11.5
CC1(C)COP(=O)(C(/C=C/c2ccccc2)P2(=O)OCC(C)(C)CO2)OC1 | > 1000

The compounds below were run on SF-268 (assay: Growth inhibition of human SF268 cells by MTT assay).
Format: functional, cell-based

Structure (SMILES) | IC50 [µM]
O=P1(C(c2ccc(Cl)cc2)P2(=O)Oc3ccccc3CN2c2ccc(F)c(Cl)c2)Oc2ccccc2CN1c1ccc(F)c(Cl)c1 (stereo unspecified) | 11.2
C/C=C/C(P1(=O)Oc2ccccc2CN1c1ccc(F)c(Cl)c1)P1(=O)Oc2ccccc2CN1c1ccc(F)c(Cl)c1 (stereo unspecified) | 8.5
O=P1(C(/C=C/c2ccccc2)P2(=O)Oc3ccccc3CN2c2ccc(F)c(Cl)c2)Oc2ccccc2CN1c1ccc(F)c(Cl)c1 (stereo unspecified) | 11.6
Cc1ccc(C(P2(=O)OCC(C)(C)CO2)P2(=O)OCC(C)(C)CO2)cc1 | > 1000
Cc1ccc(C(P2(=O)Oc3ccccc3CN2c2ccc(F)c(Cl)c2)P2(=O)Oc3ccccc3CN2c2ccc(F)c(Cl)c2)cc1 (stereo unspecified) | 7.69
O=P1(C(c2ccccc2)P2(=O)Oc3ccccc3CN2c2ccc(F)c(Cl)c2)Oc2ccccc2CN1c1ccc(F)c(Cl)c1 (stereo unspecified) | 2.8
C/C=C/C(P1(=O)OCC(C)(C)CO1)P1(=O)OCC(C)(C)CO1 | > 1000
CC1(C)COP(=O)(C(c2ccccc2)P2(=O)OCC(C)(C)CO2)OC1 | > 1000
CC1(C)COP(=O)(C(c2ccc(Cl)cc2)P2(=O)OCC(C)(C)CO2)OC1 | > 1000
CC1(C)COP(=O)(C(c2cccc([N+](=O)[O-])c2)P2(=O)OCC(C)(C)CO2)OC1 | > 1000
CCN(CC)c1ccc(C(P2(=O)OCC(C)(C)CO2)P2(=O)OCC(C)(C)CO2)cc1 | > 1000
CC1(C)COP(=O)(C(c2ccncc2)P2(=O)OCC(C)(C)CO2)OC1 | > 1000
NP(=O)(O)C(c1ccc(Cl)cc1)P(N)(=O)O (stereo unspecified) | 90.4
CCN(CC)c1ccc(C(P2(=O)Oc3ccccc3CN2c2ccc(F)c(Cl)c2)P2(=O)Oc3ccccc3CN2c2ccc(F)c(Cl)c2)cc1 (stereo unspecified) | 3.85
O=[N+]([O-])c1cccc(C(P2(=O)Oc3ccccc3CN2c2ccc(F)c(Cl)c2)P2(=O)Oc3ccccc3CN2c2ccc(F)c(Cl)c2)c1 (stereo unspecified) | 10.7
O=P1(C(c2ccncc2)P2(=O)Oc3ccccc3CN2c2ccc(F)c(Cl)c2)Oc2ccccc2CN1c1ccc(F)c(Cl)c1 (stereo unspecified) | 11.7
CC1(C)COP(=O)(C(/C=C/c2ccccc2)P2(=O)OCC(C)(C)CO2)OC1 | > 1000
